Counter-ions that a name gives are not always drawn.
Molecular target: T1, Human Polθ polymerase domain (aa1820-2590) (Homo sapiens, UniProt O75417)
T1 construct: Human Polθ polymerase domain (aa1820-2590) was expressed in E. Coli; made in house; host or cells: E. coli
T1 sequence (O75417 1820-2590): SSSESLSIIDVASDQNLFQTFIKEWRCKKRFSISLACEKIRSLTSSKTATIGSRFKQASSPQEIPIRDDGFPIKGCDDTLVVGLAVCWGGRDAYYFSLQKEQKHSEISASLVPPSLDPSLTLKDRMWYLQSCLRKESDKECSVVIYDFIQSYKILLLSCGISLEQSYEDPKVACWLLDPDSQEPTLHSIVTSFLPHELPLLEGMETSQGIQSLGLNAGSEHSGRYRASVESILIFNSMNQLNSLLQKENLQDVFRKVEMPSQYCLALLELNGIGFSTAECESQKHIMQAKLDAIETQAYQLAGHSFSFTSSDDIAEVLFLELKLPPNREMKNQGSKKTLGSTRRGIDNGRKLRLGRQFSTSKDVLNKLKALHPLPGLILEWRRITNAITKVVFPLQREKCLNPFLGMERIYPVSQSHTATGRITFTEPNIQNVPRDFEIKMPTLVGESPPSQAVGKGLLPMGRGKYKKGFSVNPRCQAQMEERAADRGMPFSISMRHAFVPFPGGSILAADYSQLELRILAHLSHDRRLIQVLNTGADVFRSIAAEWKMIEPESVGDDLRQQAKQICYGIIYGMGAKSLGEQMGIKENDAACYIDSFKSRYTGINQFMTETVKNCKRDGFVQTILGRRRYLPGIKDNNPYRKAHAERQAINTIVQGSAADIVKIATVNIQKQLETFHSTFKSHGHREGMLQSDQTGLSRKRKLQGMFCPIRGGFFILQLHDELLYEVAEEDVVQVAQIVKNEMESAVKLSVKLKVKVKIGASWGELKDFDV
Assay: Polθ Polymerase Domain WT KI Assay (PicoGreen)
Type: biochemical
Conditions: 100 nM DNA substrate, 0.156 nM Polθ, initial rates vs inhibitor concentration
Description: A PicoGreen assay was used to measure the KI values of reversible compounds that inhibit the activity of Polθ in vitro.
Human Polθ polymerase domain (aa1820-2590) was expressed in E. Coli, purified, aliquoted and stored at −80° C. until required. Polθ substrate was generated from a 1.2:1 mix of DNA II Short to DNA II Long to give a final concentration of […] substrate in annealing buffer (20 mM Tris pH 7.5, 50 mM NaCl). The substrate was heated in 50 mL aliquots to 95° C. in a heating block for 5 min before the heating block switched off, the reaction left to cool to rt and stored at −20° C. until required.
Assay measurements were performed with 1× buffer comprising 25 mM Tris pH 7.5, 12.5 mM NaCl, […], 5% (v/v) glycerol, 0.01% v/v Triton x-100, 0.1 mg/ml BSA, 1 mM DTT. […] 100 nL of 23×1:1.5-fold serial dilutions and a DMSO only control were dispensed using the Tecan dispenser into Greiner 384 well black low volume plates (product code 784076). DMSO concentration was maintained at 1% of the final assay volume by back filling with DMSO.
To stop the reaction, 5 μL of a solution containing 25 mM Tris-HCl PH 7.5 and 20 mM EDTA was added at […] (t=0, 15, 30, 60, 90, 120, 150, 180 mins) using the Tempest's time delay function. The plates were covered during the time course to prevent evaporation. After completing the assay, 5 μL of detection reagent (25 mM Tris-HCl pH 7.5 and 2.5% (v/v) PicoGreen) was dispensed into the wells using a Tempest liquid handler (Formulatrix) and plates subsequently read on the CLARIOstar Plus (BMG Labtech) using the default optical settings for fluorescein and the auto gain/focus settings.
All data analysis was carried out using GraphPad Prism V.8 (GraphPad Software Inc, San Diego, CA). Time course data for each inhibitor concentration were fitted to the linear regression model in GraphPad Prism. Any time points where the control (DMSO only) reaction was no longer linear were excluded from the analysis. The initial rates (slopes) obtained from the linear regression were then plotted against inhibitor concentration and fitted to an inhibitor vs. response variable slope (four parameter) model on GraphPad Prism to determine the KI values.

Row | Ki [nM] | SMILES
1 | 2.54 | Cc1cc(C(F)(F)F)cc(N2C(=O)C[C@@H]3CN(CC4CCN(C)CC4)c4c(Cl)cccc4N(C)C(=O)[C@H]32)n1 [Example 84, (3aR,11aS)-6-Chloro-10-methyl-1-(6-methyl-4-(trifluoromethyl)pyridin-2-yl)-5-((1-methylpiperidin-4-yl)methyl)-1,3a,4,5,10,11a-hexahydro-2H-benzo[b]pyrrolo[2,3-f][1,4]diazocine-2,11(3H)-dione]
2 | 3.91 | Cc1cc(C(F)(F)F)cc(N2C(=O)C[C@@H]3CN(CC4CCCN4)c4c(Cl)cccc4N(C)C(=O)[C@H]32)n1 (single isomer, unassigned) [Example 107a]
3 | 2.02 | Cc1cc(C(F)(F)F)cc(N2C(=O)C[C@@H]3CN(C[C@@H]4CNCCO4)c4c(Cl)cccc4N(C)C(=O)[C@H]32)n1 (racemic) [Example 109b, (3aR,11aS)-6-Chloro-10-methyl-1-(6-methyl-4-(trifluoromethyl)pyridin-2-yl)-5-(((S/R)-morpholin-2-yl)methyl)-1,3a,4,5,10,11a-hexahydro-2H-benzo[b]pyrrolo[2,3-f][1,4]diazocine-2,11(3H)-dione]
4 | 4.91 | Cc1cc(C(F)(F)F)cc(N2C(=O)C[C@@H]3CN(Cc4nc5n(n4)CCNC5)c4c(F)cccc4N(C)C(=O)[C@H]32)n1 [Example 98, (3aR,11aS)-6-Fluoro-10-methyl-1-(6-methyl-4-(trifluoromethyl)pyridin-2-yl)-5-((5,6,7,8-tetrahydro-[1,2,4]triazolo[1,5-a]pyrazin-2-yl)methyl)-1,3a,4,5,10,11a-hexahydro-2H-benzo[b]pyrrolo[2,3-f][1,4]diazocine-2,11(3H)-dione]
5 | 2.17 | Cc1cc(C(F)(F)F)cc(N2C(=O)C[C@@H]3CN(C[C@H]4COCCN4)c4c(Cl)cccc4N(C)C(=O)[C@H]32)n1 (racemic) [Example 108a, (3aR,11aS)-6-Chloro-10-methyl-1-(6-methyl-4-(trifluoromethyl)pyridin-2-yl)-5-(((S/R)-morpholin-3-yl)methyl)-1,3a,4,5,10,11a-hexahydro-2H-benzo[b]pyrrolo[2,3-f][1,4]diazocine-2,11(3H)-dione]
6 | 8.7 | Cc1cc(C(F)(F)F)cc(N2C(=O)C[C@@H]3CN(CC4CCCNC4)c4c(F)cccc4N(C)C(=O)[C@H]32)n1 (stereo partly drawn) [Example 97, (3aR,11aS)-6-Fluoro-10-methyl-1-(6-methyl-4-(trifluoromethyl)pyridin-2-yl)-5-(piperidin-3-ylmethyl)-1,3a,4,5,10,11a-hexahydro-2H-benzo[b]pyrrolo[2,3-f][1,4]diazocine-2,11(3H)-dione hydrochloride]

The next lines start with the compound.

Row | SMILES | Ki [nM]
7 | Cc1cc(C(F)(F)F)cc(N2C(=O)C[C@@H]3CN(C[C@@H]4CCN(C)[C@@H](C)C4)c4c(Cl)cccc4N(C)C(=O)[C@H]32)n1 (single isomer, unassigned) [Example 126d] | 1.48
8 | Cc1cc(C(F)(F)F)cc(N2C(=O)C[C@@H]3CN(CCN4CCN(C)CC4)c4c(Cl)cc(F)cc4N(C)C(=O)[C@H]32)n1 [Example 8, (3aR,11aS)-6-Chloro-8-fluoro-10-methyl-1-(6-methyl-4-(trifluoromethyl)pyridin-2-yl)-5-(2-(4-methylpiperazin-1-yl)ethyl)-1,3a,4,5,10,11a-hexahydro-2H-benzo[b]pyrrolo[2,3-f][1,4]diazocine-2,11(3H)-dione] | 4.36
9 | Cc1cc(C(F)(F)F)cc(N2C(=O)C[C@@H]3CN(CCN4CCN(C(=O)[C@@H](C)O)CC4)c4c(C)cccc4N(C)C(=O)[C@H]32)n1 [Example 51, (3aR,11aS)-5-(2-(4-((R)-2-Hydroxypropanoyl)piperazin-1-yl)ethyl)-6,10-dimethyl-1-(6-methyl-4-(trifluoromethyl)pyridin-2-yl)-1,3a,4,5,10,11a-hexahydro-2H-benzo[b]pyrrolo[2,3-f][1,4]diazocine-2,11(3H)-dione hydrochloride] | 0.928
10 | Cc1cc(C(F)(F)F)cc(N2C(=O)C[C@@H]3CN(c4cccnc4)c4c(F)cccc4N(C)C(=O)[C@H]32)n1 [Example 138, (3aR,11aS)-6-Fluoro-10-methyl-1-(6-methyl-4-(trifluoromethyl)pyridin-2-yl)-5-(pyridin-3-yl)-1,3a,4,5,10,11a-hexahydro-2H-benzo[b]pyrrolo[2,3-f][1,4]diazocine-2,11(3H)-dione] | 645
11 | Cc1cc(C(F)(F)F)cc(N2C(=O)C[C@@H]3CN(Cc4ccc5c(c4)CCN(C)C5)c4c(F)cccc4N(C)C(=O)[C@H]32)n1 [Example 122, (3aR,11aS)-6-Fluoro-10-methyl-5-((2-methyl-1,2,3,4-tetrahydroisoquinolin-6-yl)methyl)-1-(6-methyl-4-(trifluoromethyl)pyridin-2-yl)-1,3a,4,5,10,11a-hexahydro-2H-benzo[b]pyrrolo[2,3-f][1,4]diazocine-2,11(3H)-dione] | 1.94
12 | Cc1cc(C(F)(F)F)cc(N2C(=O)C[C@@H]3CN(Cc4cccnc4)c4c(Cl)cccc4N(C)C(=O)[C@H]32)n1 [Example 95, (3aR,11aS)-6-Chloro-10-methyl-1-(6-methyl-4-(trifluoromethyl)pyridin-2-yl)-5-(pyridin-3-ylmethyl)-1,3a,4,5,10,11a-hexahydro-2H-benzo[b]pyrrolo[2,3-f][1,4]diazocine-2,11(3H)-dione] | 3.7
13 | CCN(CC)CCN1C[C@H]2CC(=O)N(c3cc(C(F)(F)F)cc(C)n3)[C@@H]2C(=O)N(C)c2cccc(Cl)c21 [Example 21, (3aR,11aS)-6-Chloro-5-(2-(diethylamino)ethyl)-10-methyl-1-(6-methyl-4-(trifluoromethyl)pyridin-2-yl)-1,3a,4,5,10,11a-hexahydro-2H-benzo[b]pyrrolo[2,3-f][1,4]diazocine-2,11(3H)-dione] | 9.94
14 | Cc1cc(C(F)(F)F)cc(N2C(=O)C[C@@H]3CN(CCN4CCN(S(C)(=O)=O)CC4)c4c(C)cccc4N(C)C(=O)[C@H]32)n1 [Example 67, (3aR,11aS)-6,10-Dimethyl-1-(6-methyl-4-(trifluoromethyl)pyridin-2-yl)-5-(2-(4-(methylsulfonyl)piperazin-1-yl)ethyl)-1,3a,4,5,10,11a-hexahydro-2H-benzo[b]pyrrolo[2,3-f][1,4]diazocine-2,11(3H)-dione] | 0.598
15 | Cc1cc(C(F)(F)F)cc(N2C(=O)C[C@@H]3CN(CCCN4CCOCC4)c4c(F)cccc4N(C)C(=O)[C@H]32)n1 [Example 137, (3aR,11aS)-6-Fluoro-10-methyl-1-(6-methyl-4-(trifluoromethyl)pyridin-2-yl)-5-(3-morpholinopropyl)-1,3a,4,5,10,11a-hexahydro-2H-benzo[b]pyrrolo[2,3-f][1,4]diazocine-2,11(3H)-dione] | 10.1
16 | Cc1cc(C(F)(F)F)cc(N2C(=O)C[C@@H]3CN(CCN4CCN(C)C[C@@H]4CO)c4c(C)cccc4N(C)C(=O)[C@H]32)n1 [Example 65, (3aR,11aS)-5-(2-((R)-2-(Hydroxymethyl)-4-methylpiperazin-1-yl)ethyl)-6,10-dimethyl-1-(6-methyl-4-(trifluoromethyl)pyridin-2-yl)-1,3a,4,5,10,11a-hexahydro-2H-benzo[b]pyrrolo[2,3-f][1,4]diazocine-2,11(3H)-dione dihydrochloride] | 1.38
17 | Cc1cc(C(F)(F)F)cc(N2C(=O)C[C@@H]3CN(CCCN4CCOCC4)c4c(Cl)cccc4N(C)C(=O)[C@H]32)n1 [Example 136, (3aR,11aS)-6-Chloro-10-methyl-1-(6-methyl-4-(trifluoromethyl)pyridin-2-yl)-5-(3-morpholinopropyl)-1,3a,4,5,10,11a-hexahydro-2H-benzo[b]pyrrolo[2,3-f][1,4]diazocine-2,11(3H)-dione hydrochloride] | 0.786

Source: patent publication US20260124214A1, “HETEROCYCLIC COMPOUNDS FOR USE IN THE TREATMENT OF CANCER” (ARTIOS PHARMA LIMITED, priority 2021, published 2026)
